{
  "source": "patent US5061689A",
  "about": "“Zinc bacitracin containing wound dressing” (Bioderm, Inc., priority 1986, dated 1991)",
  "key": {"epidermal wounds": {"system": "epidermal wounds", "assay": "Effect of bacitracin zinc impregnated foam dressing on epidermal wound healing (Example I)", "format": "in vivo, white Yorkshire pigs", "settings": "for HT50 (time in days for 50% of wounds to be completely healed): probit analysis", "from_the_text": "(§1) To test the effect of bacitracin zinc on epidermal resurfacing, approximately 60 rectangular wounds measuring 7 mm wide, 10 mm long, and 0.5 mm deep were made in each of eighteen white Yorkshire pigs in the paravertebral and thoracic areas with a Castroviejo keratome. The electrokeratome was fitted with a razor blade modified so that the cutting edge was reduced to 7 mm. The wounds were separated from one another by at least 15 mm of normal skin.\nOn each of the experimental animals, approximately one third of the wounds were assigned to one of three treatment groups: (1) control (no treatment), (2) vehicle alone, (low melting point petrolatum 3.0 g) or (3) bacitracin zinc (either 1%, 2.5%, 5%, 7%, 10% or 20% in 3.0 g). A total of 99 wounds on 3 pigs were treated with each of the varying bacitracin zinc combinations. Vehicle was applied to 594 wounds in 18 animals. The other 594 wounds were the untreated controls.\n(§2) The bacitracin zinc was applied in impregnated foam shortly (within 5 minutes) after wounding on day 0 and once daily thereafter for 7 days. In order to rule out the possibility that wounds made in different anatomical regions heal at different rates the regions used for each treatment group varied for each animal.\n(§3) Two days after wounding and each day thereafter some of the wounds with surrounding normal skin were excised from each treatment group. The excisions were made with a Castroviejo keratome fitted with a 22 mm blade, set to cut at a depth of 0.7 mm. After incubating the specimens in 2N sodium bromide at 37° C. for three hours, the epidermis was separated from the dermis and the epidermal sheet (22 sq mm) was assessed for re-epithelialization as previously described. Briefly, this method is a macroscopic examination of the separated epidermis for defects. Defects are visualized as holes in the separated epidermal sheet or as a lack of epidermal continuum in the area that contain the wound. The wound is considered re-epithelialized if there are no defects in the epidermis and not re-epithelialized if there are one or more defects.\nThe time needed for 50% of the wounds in each experimental animal to heal HT50) has been estimated from curves generated by probit analysis of the data presented in Table I. The HT50 values and the relative rate of healing are compared in Table II. Wounds treated with 7% bacitracin zinc healed 46% more rapidly than untreated wounds and 28% faster than wounds treated with the ointment alone. Vehicle treated wounds healed approximately 25% faster than wounds left open to the air."}, "[1]": {"system": "deep partial thickness wounds", "assay": "7% bacitracin zinc ointment with and without polyurethane occlusion, healing of deep partial thickness wounds (Example II)", "format": "in vivo, white Yorkshire pigs", "from_the_text": "as §1, §2, §3\nFurther tests were conducted to determine the effect of bacitracin zinc covered with an occlusive film. The wounds in these were treated according to one of four treatment regiments: (1) untreated; (2) polyurethane film; (3) 7% bacitracin zinc ointment, and (4) 7% bacitracin zinc ointment plus polyurethane film. The methodology employed was substantially the same as in Example I."}, "[2]": {"settings": "bacitracin zinc as 7% ointment, listed as BAC. ZN"}},
  "data": [
    {"substance": "bacitracin zinc", "values": [
      {"measurement": "rate of healing Compared with Untreated", "setting": "epidermal wounds; 1% bacitracin zinc", "value": "+23%"},
      {"measurement": "rate of healing Compared with Vehicle", "setting": "epidermal wounds; 1% bacitracin zinc", "value": 0, "unit": "%"},
      {"measurement": "% of wounds healed", "setting": "epidermal wounds; 1% bacitracin zinc in impregnated foam, day 2 after wounding", "value": 0, "unit": "%"},
      {"measurement": "% of wounds healed", "setting": "epidermal wounds; 1% bacitracin zinc in impregnated foam, day 3 after wounding", "value": 0, "unit": "%"},
      {"measurement": "% of wounds healed", "setting": "epidermal wounds; 1% bacitracin zinc in impregnated foam, day 4 after wounding", "value": 40, "unit": "%"},
      {"measurement": "% of wounds healed", "setting": "epidermal wounds; 1% bacitracin zinc in impregnated foam, day 5 after wounding", "value": 58, "unit": "%"},
      {"measurement": "% of wounds healed", "setting": "epidermal wounds; 1% bacitracin zinc in impregnated foam, day 6 after wounding", "value": 95, "unit": "%"},
      {"measurement": "% of wounds healed", "setting": "epidermal wounds; 1% bacitracin zinc in impregnated foam, day 7 after wounding", "value": 100, "unit": "%"},
      {"measurement": "HT50 (time in days for 50% of wounds to be completely healed)", "setting": "epidermal wounds; 1% bacitracin zinc", "value": 4.5, "unit": "days"},
      {"measurement": "rate of healing Compared with Untreated", "setting": "epidermal wounds; 2.5% bacitracin zinc", "value": "+25%"},
      {"measurement": "rate of healing Compared with Vehicle", "setting": "epidermal wounds; 2.5% bacitracin zinc", "value": 2, "unit": "%"},
      {"measurement": "% of wounds healed", "setting": "epidermal wounds; 2.5% bacitracin zinc in impregnated foam, day 2 after wounding", "value": 0, "unit": "%"},
      {"measurement": "% of wounds healed", "setting": "epidermal wounds; 2.5% bacitracin zinc in impregnated foam, day 3 after wounding", "value": 0, "unit": "%"},
      {"measurement": "% of wounds healed", "setting": "epidermal wounds; 2.5% bacitracin zinc in impregnated foam, day 4 after wounding", "value": 36, "unit": "%"},
      {"measurement": "% of wounds healed", "setting": "epidermal wounds; 2.5% bacitracin zinc in impregnated foam, day 5 after wounding", "value": 60, "unit": "%"},
      {"measurement": "% of wounds healed", "setting": "epidermal wounds; 2.5% bacitracin zinc in impregnated foam, day 6 after wounding", "value": 96, "unit": "%"},
      {"measurement": "% of wounds healed", "setting": "epidermal wounds; 2.5% bacitracin zinc in impregnated foam, day 7 after wounding", "value": 100, "unit": "%"},
      {"measurement": "HT50 (time in days for 50% of wounds to be completely healed)", "setting": "epidermal wounds; 2.5% bacitracin zinc", "value": 4.4, "unit": "days"},
      {"measurement": "rate of healing Compared with Untreated", "setting": "epidermal wounds; 5.0% bacitracin zinc", "value": "+34%"},
      {"measurement": "rate of healing Compared with Vehicle", "setting": "epidermal wounds; 5.0% bacitracin zinc", "value": 13, "unit": "%"},
      {"measurement": "% of wounds healed", "setting": "epidermal wounds; 5.0% bacitracin zinc in impregnated foam, day 2 after wounding", "value": 0, "unit": "%"},
      {"measurement": "% of wounds healed", "setting": "epidermal wounds; 5.0% bacitracin zinc in impregnated foam, day 3 after wounding", "value": 11, "unit": "%"},
      {"measurement": "% of wounds healed", "setting": "epidermal wounds; 5.0% bacitracin zinc in impregnated foam, day 4 after wounding", "value": 54, "unit": "%"},
      {"measurement": "% of wounds healed", "setting": "epidermal wounds; 5.0% bacitracin zinc in impregnated foam, day 5 after wounding", "value": 77, "unit": "%"},
      {"measurement": "% of wounds healed", "setting": "epidermal wounds; 5.0% bacitracin zinc in impregnated foam, day 6 after wounding", "value": 95, "unit": "%"},
      {"measurement": "% of wounds healed", "setting": "epidermal wounds; 5.0% bacitracin zinc in impregnated foam, day 7 after wounding", "value": 100, "unit": "%"},
      {"measurement": "HT50 (time in days for 50% of wounds to be completely healed)", "setting": "epidermal wounds; 5.0% bacitracin zinc", "value": 3.9, "unit": "days"},
      {"measurement": "rate of wound re-epithelialization compared with both untreated and vehicle treated wounds", "setting": "epidermal wounds; 7% bacitracin zinc", "value": "significantly greater"},
      {"measurement": "rate of healing Compared with Untreated", "setting": "epidermal wounds; 7.0% bacitracin zinc", "value": "+46%"},
      {"measurement": "rate of healing Compared with Vehicle", "setting": "epidermal wounds; 7.0% bacitracin zinc", "value": 28, "unit": "%"},
      {"measurement": "% of wounds healed", "setting": "epidermal wounds; 7.0% bacitracin zinc in impregnated foam, day 2 after wounding", "value": 0, "unit": "%"},
      {"measurement": "% of wounds healed", "setting": "epidermal wounds; 7.0% bacitracin zinc in impregnated foam, day 3 after wounding", "value": 36, "unit": "%"},
      {"measurement": "% of wounds healed", "setting": "epidermal wounds; 7.0% bacitracin zinc in impregnated foam, day 4 after wounding", "value": 70, "unit": "%"},
      {"measurement": "% of wounds healed", "setting": "epidermal wounds; 7.0% bacitracin zinc in impregnated foam, day 5 after wounding", "value": 98, "unit": "%"},
      {"measurement": "% of wounds healed", "setting": "epidermal wounds; 7.0% bacitracin zinc in impregnated foam, day 6 after wounding", "value": 100, "unit": "%"},
      {"measurement": "% of wounds healed", "setting": "epidermal wounds; 7.0% bacitracin zinc in impregnated foam, day 7 after wounding", "value": 100, "unit": "%"},
      {"measurement": "rate of healing Compared with Untreated", "setting": "epidermal wounds; 7.0% bacitracin zinc, listed as bacitracin zinc", "value": 46, "unit": "%"},
      {"measurement": "HT50 (time in days for 50% of wounds to be completely healed)", "setting": "epidermal wounds; 7.0% bacitracin zinc", "value": 3.2, "unit": "days"},
      {"measurement": "rate of healing Compared with Untreated", "setting": "epidermal wounds; 10.0% bacitracin zinc", "value": "+19%"},
      {"measurement": "rate of healing Compared with Vehicle", "setting": "epidermal wounds; 10.0% bacitracin zinc", "value": -6, "unit": "%"},
      {"measurement": "% of wounds healed", "setting": "epidermal wounds; 10.0% bacitracin zinc in impregnated foam, day 2 after wounding", "value": 0, "unit": "%"},
      {"measurement": "% of wounds healed", "setting": "epidermal wounds; 10.0% bacitracin zinc in impregnated foam, day 3 after wounding", "value": 2, "unit": "%"},
      {"measurement": "% of wounds healed", "setting": "epidermal wounds; 10.0% bacitracin zinc in impregnated foam, day 4 after wounding", "value": 33, "unit": "%"},
      {"measurement": "% of wounds healed", "setting": "epidermal wounds; 10.0% bacitracin zinc in impregnated foam, day 5 after wounding", "value": 66, "unit": "%"},
      {"measurement": "% of wounds healed", "setting": "epidermal wounds; 10.0% bacitracin zinc in impregnated foam, day 6 after wounding", "value": 92, "unit": "%"},
      {"measurement": "% of wounds healed", "setting": "epidermal wounds; 10.0% bacitracin zinc in impregnated foam, day 7 after wounding", "value": 100, "unit": "%"},
      {"measurement": "HT50 (time in days for 50% of wounds to be completely healed)", "setting": "epidermal wounds; 10.0% bacitracin zinc", "value": 4.8, "unit": "days"},
      {"measurement": "rate of healing Compared with Untreated", "setting": "epidermal wounds; 20.0% bacitracin zinc", "value": "+19%"},
      {"measurement": "rate of healing Compared with Vehicle", "setting": "epidermal wounds; 20.0% bacitracin zinc", "value": -6, "unit": "%"},
      {"measurement": "% of wounds healed", "setting": "epidermal wounds; 20.0% bacitracin zinc in impregnated foam, day 2 after wounding", "value": 0, "unit": "%"},
      {"measurement": "% of wounds healed", "setting": "epidermal wounds; 20.0% bacitracin zinc in impregnated foam, day 3 after wounding", "value": 0, "unit": "%"},
      {"measurement": "% of wounds healed", "setting": "epidermal wounds; 20.0% bacitracin zinc in impregnated foam, day 4 after wounding", "value": 42, "unit": "%"},
      {"measurement": "% of wounds healed", "setting": "epidermal wounds; 20.0% bacitracin zinc in impregnated foam, day 5 after wounding", "value": 58, "unit": "%"},
      {"measurement": "% of wounds healed", "setting": "epidermal wounds; 20.0% bacitracin zinc in impregnated foam, day 6 after wounding", "value": 96, "unit": "%"},
      {"measurement": "% of wounds healed", "setting": "epidermal wounds; 20.0% bacitracin zinc in impregnated foam, day 7 after wounding", "value": 100, "unit": "%"},
      {"measurement": "HT50 (time in days for 50% of wounds to be completely healed)", "setting": "epidermal wounds; 20.0% bacitracin zinc", "value": 4.8, "unit": "days"},
      {"measurement": "effect on healing", "setting": "epidermal wounds; levels higher than 5% to 8% bacitracin zinc", "value": "tend in inhibit rather than promote healing"},
      {"measurement": "rate of wound re-epithelialization compared with ointment vehicle treated wounds", "setting": "epidermal wounds; the other concentrations of bacitracin zinc (1%, 2.5%, 5%, 10%, 20%)", "value": "no significant difference"},
      {"measurement": "HT50 (time in days for 50% of wounds to be completely healed)", "setting": "[1]; bacitracin zinc as 7% ointment", "value": 4.1, "unit": "days"},
      {"measurement": "rate of healing COMPARED WITH PU FILM", "setting": "[1]; bacitracin zinc as 7% ointment", "value": "about 4%"},
      {"measurement": "rate of healing Compared with Untreated", "setting": "[1]; bacitracin zinc as 7% ointment", "value": "about 24%"},
      {"measurement": "rate of healing COMPARED WITH PU FILM", "setting": "[1]; [2]", "value": "+4%"},
      {"measurement": "rate of healing Compared with Untreated", "setting": "[1]; [2]", "value": "+24%"},
      {"measurement": "% of wounds healed", "setting": "[1]; day 2 after wounding, bacitracin zinc as 7% ointment", "value": 0, "unit": "%"},
      {"measurement": "% of wounds healed", "setting": "[1]; day 3 after wounding, bacitracin zinc as 7% ointment", "value": 19, "unit": "%"},
      {"measurement": "% of wounds healed", "setting": "[1]; day 4 after wounding, bacitracin zinc as 7% ointment", "value": 42, "unit": "%"},
      {"measurement": "% of wounds healed", "setting": "[1]; day 5 after wounding, bacitracin zinc as 7% ointment", "value": 77, "unit": "%"},
      {"measurement": "% of wounds healed", "setting": "[1]; day 6 after wounding, bacitracin zinc as 7% ointment", "value": 92, "unit": "%"},
      {"measurement": "% of wounds healed", "setting": "[1]; day 7 after wounding, bacitracin zinc as 7% ointment", "value": 100, "unit": "%"},
      {"measurement": "further enhancement in the rate of healing over bacitracin zinc used alone", "setting": "[1]; semipermeable occlusive film applied over the bacitracin zinc impregnated pad", "value": 20, "unit": "%"}
    ]}
  ]
}
